From the supplement of paper PMC10307832

How the values were obtained:
Assay in all cases: relative viability (nuclei count vs DMSO), 5 days (fraction); higher = more cells survive
[1] = compound: COc1cc(-c2nn([C@H]3CC[C@H](N4CCN(C(C)=O)CC4)CC3)c3ncnc(N)c23)ccc1NC(=O)c1cc2ccccc2n1C + O=C(CCCCCCC(=O)Nc1ccccc1)NO [Vorinostat] (partner 1 µM)
Outline: (§1)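 Lung cancer cell lines in 1536-well plates were dosed by pin tool the day after seeding, either with one drug alone or with a fixed anchor-drug dose plus five library-drug doses (not always all listed) in √10 steps. After 5 days, cells were fixed and their nuclei stained in one step (final 0.05% Triton X-100, 1% formaldehyde, 1 ug/ml Hoechst), then counted on 4× images. Relative viability is the nuclei count in treated wells divided by that in vehicle wells. Values are medians of duplicate plates.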

[2] = compound: COc1cc(-c2nn([C@H]3CC[C@H](N4CCN(C(C)=O)CC4)CC3)c3ncnc(N)c23)ccc1NC(=O)c1cc2ccccc2n1C + CC(=O)Nc1cccc(-n2c(=O)n(C3CC3)c(=O)c3c(Nc4ccc(I)cc4F)n(C)c(=O)c(C)c32)c1 [Trametinib] (partner 0.02 µM)
Outline: as §1

[3] = compound: CO[C@@H]1[C@H](N(C)C(=O)c2ccccc2)C[C@H]2O[C@]1(C)n1c3ccccc3c3c4c(c5c6ccccc6n2c5c31)C(=O)NC4 [Midostaurin] + Nc1nc2[nH]cc(CCc3ccc(C(=O)N[C@@H](CCC(=O)O)C(=O)O)cc3)c2c(=O)[nH]1 [Pemetrexed] (partner 0.2 µM)
Outline: as §1

[4] = compound: CO[C@@H]1[C@H](N(C)C(=O)c2ccccc2)C[C@H]2O[C@]1(C)n1c3ccccc3c3c4c(c5c6ccccc6n2c5c31)C(=O)NC4 [Midostaurin] + CS(=O)(=O)CCNCc1ccc(-c2ccc3ncnc(Nc4ccc(OCc5cccc(F)c5)c(Cl)c4)c3c2)o1 [Lapatinib] (partner 2 µM)
Outline: as §1

[5] = compound: CO[C@@H]1[C@H](N(C)C(=O)c2ccccc2)C[C@H]2O[C@]1(C)n1c3ccccc3c3c4c(c5c6ccccc6n2c5c31)C(=O)NC4 [Midostaurin] + C[C@]1(O)C[C@@H](c2nc(-c3ccc4ccc(-c5ccccc5)nc4c3)c3c(N)nccn32)C1 [Linsitinib] (partner 1 µM)
Outline: as §1

UMC-11 gave a relative viability ([1]; first compound 0.0128 µM) of 0.44, a relative viability ([1]; first compound 0.04048 µM) of 0.38 and a relative viability ([1]; first compound 0.128 µM) of 0.351. For the same cell line, the relative viability ([1]; first compound 1.28 µM) was 0.342, the relative viability ([2]; first compound 0.0128 µM) was 0.654 and the relative viability ([2]; first compound 0.04048 µM) was 0.689. It also gave a relative viability ([2]; first compound 0.128 µM) of 0.67, a relative viability ([2]; first compound 1.28 µM) of 0.661 and a relative viability ([3]; first compound 0.01 µM) of 0.808. For the same cell line, the relative viability ([3]; first compound 0.03162 µM) was 0.753, the relative viability ([3]; first compound 0.1 µM) was 0.65 and the relative viability ([3]; first compound 0.3162 µM) was 0.528. For the same cell line, the relative viability ([4]; first compound 0.01 µM) was 0.936, the relative viability ([4]; first compound 0.03162 µM) was 0.836 and the relative viability ([4]; first compound 0.1 µM) was 0.937. For the same cell line, the relative viability ([4]; first compound 0.3162 µM) was 0.513, the relative viability ([5]; first compound 0.01 µM) was 0.984 and the relative viability ([5]; first compound 0.03162 µM) was 0.998. It also gave a relative viability ([5]; first compound 0.1 µM) of 0.95 and a relative viability ([5]; first compound 0.3162 µM) of 0.586.
